Test results published in patent US20030148929A1, “Nucleic acid carriers and pharmaceutical compositions for gene therapy” (Hisamitsu Pharmaceutical Co., Inc., priority 1998, published 2003).

Experiments:
Balb/c mice [1] = assay: Survival rate of mice singly administered with high doses of carrier; assay type: in vivo; settings: pDBA, single
Procedure: The survival rate of mice was investigated in the manner described below when high doses of pDBA solution were directly administered to the mice.
pDBA was dissolved in physiological saline solution to prepare pDBA solutions having different concentrations. The pDBA solutions were administered to Balb/c mice intravenously through tail veins, and their symptoms were observed. pDBAs obtained in Synthetic Examples 1-7 (all listed in Table 2) were used. […]

HepG2 cells [2] = assay: Introduction of FITC-labeled oligonucleotide into HepG2 cells using pDBA, flow cytometer; assay type: cell-based; settings: HepG2, 4 hours, FIG. 11 and 12
Procedure: An oligonucleotide labeled with FITC (20 mer, Pharmacia Corporation) was used to assess the efficiency of introduction into cells for the. complexes of the oligonucleotide with various pDBAs.
HepG2 cells were inoculated onto a 12-well petri dish at 1×10^5 cells/well and cultured for 24 hours. The FITC-labeled oligonucleotide was used, and pDBAs obtained in Synthetic Examples 3 and 5 were used as the nucleic acid carriers. Complexes were prepared from these three kinds (pDBAs and the FITC-labeled oligonucleotide) such that the ratios of oligonucleotide/pDBA were 1/1, 1/5, and 1/10 (w/w). The complex solutions were added to the HepG2 cells; and after culturing for 4 hours, the cells were washed with PBS(−) twice. After removal of PBS(−), the cells were separated from the dish using a cell dissociation solution (SIGMA-Aldrich Corporation) and the cell suspensions were subjected to measurement with a flow cytometer (FACS Calibur available from Becton Dickinson). The results are shown in FIG. 11 (oligonucleotide/pDBA=1/5(w/w)), where M1 represents the results from control experiment and M2 represents the results from the experiment using the FITC-labeled oligonucleotide).

[3] = system: guinea pigs (Hartley line); settings: guinea pig, in vivo
Balb/c mice [4] = assay: Gene introduction into mice with plasmid A/pDBA complexes given intravenously through tail veins, luciferase activity in tissues; assay type: in vivo; settings: for luciferase activity in the liver: plasmid/pDBA 1/7 (w/w)
Procedure: A solution of plasmid A and a solution of pDBA were prepared, respectively, at twice the desired concentration. Approximately 30 minutes prior to administration, the pDBA solution was added dropwise to the plasmid solution with stirring to prepare a plasmid/(nucleic acid carrier) complex solution. DMEM medium was used as solvent. Specifically, a 50 μg/ml plasmid solution was prepared such that a plasmid/(nucleic acid carrier) complex solution having a plasmid concentration of 25.0 μg/ml would be used as an administration sample.
Complex solutions were prepared from pDBA obtained in Example 3 and plasmid A such that the weight ratio of plasmid/pDBA was 1/7 (w/w) and were administered to Balb/c mice intravenously through tail veins. The dose of plasmid A per mouse was 12.5 μg/0.5 ml. Two days and twenty one days after administration the luciferase activity was measured in the lung, the liver and the spleen whereby gene introduction to the respective were determined.
Complex solutions were prepared from pDBA obtained in Synthetic Example 3 and plasmid A such that different weight ratios of plasmid to pDBA (plasmid/pDBA=1/0, 1/1, 1/5, 1/10, and 1/20) were realized; and they were administered to Balb/c mice intravenously through tail veins.
Two days after administration the luciferase activity found in the liver was measured whereby gene introduction to the respective mouse tissues were determined.
Complexes were prepared from five kinds of pDBA obtained in Synthetic Examples 1, 2, 3, 4, and 5 (all listed in Table 2) and plasmid A such that the weight ratio of plasmid/pDBA was 1/5 (w/w); and they were administered to mice intravenously through tail veins. Two days after administration the luciferase activity in the liver was measured.
Similarly to Example 4, Plasmid A/pDBA complex solutions that were prepared were administered to Balb/C mice (8-week old male) intravenously through tail veins. Gene expression in the liver after administration was assessed by measuring the luciferase activity. pDBA obtained in Synthetic Example 3 in Table 2 was used to prepare a complex solution such that plasmid/pDBA was equal to 1/5 (w/W), which was used in the administration described above.

HepG2 cells [5] = assay: Gene introduction into HepG2 cells with plasmid A/pDBA complexes, activity of the expressed luciferase; assay type: cell-based; settings: plasmid/pDBA weight ratios 1/1 to 1/20 (w/w), FIG. 3
Procedure: A solution of a plasmid encoding the luciferase gene (about 5.25 kb: PicaGene control vector into which the luciferase gene was previously introduced (Toyo Ink Mfg. Co. Ltd.) that will be referred to as “plasmid A” hereinafter) and a solution of a nucleic acid carrier were prepared, respectively, at twice the desired concentration. Approximately 30 minutes prior to administration, the nucleic acid carrier solution was added dropwise to the plasmid solution with stirring to prepare a plasmid/(nucleic acid carrier) complex solution. DMEM medium (Sigma-Aldrich Corporation) was used as solvent. Specifically, a 25 μg/ml plasmid solution was prepared such that a plasmid/(nucleic acid carrier) complex solution having a plasmid concentration of 12.5 μg/ml would be used as an administration sample.
HepG2 cells were inoculated onto a 12-well multi-well plate (Coaster Inc.) at 1×10^5 cells/well one day prior to testing. […] The luciferase activity of the supernatant was measured on a Luciferase Assay System (Toyo Inc. Mfg. Co. Ltd.) using a luminometer (Lumit LB9501 available from Berthold Pty Ltd.). The protein concentration of the centrifuged supernatant was measured in a Protein Assay Kit (Bio-Rad Laboratories, Inc.) using a microplate reader (Rainbow Thermo available from Tecan U.S., Inc.). […]

“Poly(DL-2,4-diaminobutyric acid) Acetate [Synthetic Example 1]” was tested, and the “Survival rate (survival number/case number)” value (Balb/c mice [1]; dose 1.6 mg/kg iv) was 3/3, the “Survival rate (survival number/case number)” value (Balb/c mice [1]; dose 3.1 mg/kg iv, listed as 12, 3.1 mg/kg) was 3/3 and the “Survival rate (survival number/case number)” value (Balb/c mice [1]; dose 6.3 mg/kg iv, listed as 12, 6.3 mg/kg) was 3/3. The “Survival rate (survival number/case number)” value (Balb/c mice [1]; dose 12.5 mg/kg iv) was 0/3 and the “cellular introduction / incorporation of the FITC-labeled oligonucleotide” value (HepG2 cells [2]) was “little incorporation of oligonucleotide”.

For “Poly(DL-2,4-diaminobutyric acid) Acetate [Synthetic Example 2]”, the “Survival rate (survival number/case number)” value (Balb/c mice [1]; dose 3.1 mg/kg iv, listed as 26, 3.1 mg/kg) was 3/3 and the “Survival rate (survival number/case number)” value (Balb/c mice [1]; dose 6.3 mg/kg iv, listed as 26, 6.3 mg/kg) was 3/3.

In the case of “Poly(DL-2,4-diaminobutyric acid) Acetate [Synthetic Example 3]”, the “Survival rate (survival number/case number)” value (Balb/c mice [1]; dose 3.1 mg/kg iv, listed as 49, 3.1 mg/kg) is reported as 3/3, the “Survival rate (survival number/case number)” value (Balb/c mice [1]; dose 6.3 mg/kg iv, listed as 49, 6.3 mg/kg) is reported as 3/3 and the immunogenicity [3] is reported as “very low”. For the same substance, the “luciferase activity in the liver” value (Balb/c mice [4]; 21 days after iv administration, FIG. 5B) was “maintained even 21 days after administration”, the “duration of gene expression in the liver after a single administration” value (Balb/c mice [4]; Balb/C mice, iv tail vein, plasmid A, plasmid/pDBA 1/5 (w/W), FIG. 8) was ≥ 7 months and the “gene expression (luciferase activity in the liver)” value (Balb/c mice [4]; two days after iv administration, plasmid/pDBA 1/0, 1/1, 1/5, 1/10, 1/20, FIG. 6) was “As the quantity of pDBA relative to the plasmid increases, the gene expression has the tendency to increase”. For the same substance, the “luciferase activity in the liver” value (Balb/c mice [4]; two days after iv administration, compared with plasmid only, FIG. 5A) was “markedly high luciferase activity” and the “gene expression (activity of the expressed luciferase)” value (HepG2 cells [5]) was “as the quantity of pDBA relative to plasmid increases, so does the gene expression”.

“Poly(DL-2,4-diaminobutyric acid) Acetate [Synthetic Example 4]” was tested, and the “Survival rate (survival number/case number)” value (Balb/c mice [1]; dose 3.1 mg/kg iv, listed as 62, 3.1 mg/kg) was 3/3 and the “Survival rate (survival number/case number)” value (Balb/c mice [1]; dose 6.3 mg/kg iv, listed as 62, 6.3 mg/kg) was 2/3.

With “Poly(DL-2,4-diaminobutyric acid) Acetate [Synthetic Example 5]” the “Survival rate (survival number/case number)” value (Balb/c mice [1]; dose 3.1 mg/kg iv, listed as 170, 3.1 mg/kg) was 3/3 and the “Survival rate (survival number/case number)” value (Balb/c mice [1]; dose 6.3 mg/kg iv, listed as 170, 6.3 mg/kg) was 0/3.

In the case of “Poly(DL-2,4-diaminobutyric acid) Acetate [Synthetic Example 6]”, the “Survival rate (survival number/case number)” value (Balb/c mice [1]; dose 3.1 mg/kg iv, listed as 278, 3.1 mg/kg) is reported as 3/3 and the “Survival rate (survival number/case number)” value (Balb/c mice [1]; dose 6.3 mg/kg iv, listed as 278, 6.3 mg/kg) is reported as 0/3.

“Poly(DL-2,4-diaminobutyric acid) Acetate [Synthetic Example 7]” was tested, and the “Survival rate (survival number/case number)” value (Balb/c mice [1]; dose 3.1 mg/kg iv, listed as 348, 3.1 mg/kg) was 1/3 and the “Survival rate (survival number/case number)” value (Balb/c mice [1]; dose 6.3 mg/kg iv, listed as 348, 6.3 mg/kg) was 0/3.
